# According to patent US20100144819A1, “Synergistic Methods for Control of Pests” (FMC A[…]. LTD., priority 2008, published 2010):
# Columns and labels:
# [1] = tested on: black house spider (Badumna insignis); experiment: Black house spider mortality on treated pine plywood; assay type: in vivo; conditions: suspension concentrate diluted in water, 24 h
# From the text: (§1) The presence of a synergistic effect between the two active ingredients is established with the aid of the Colby equation (see Colby, S. R., “Calculating Synergistic and Antagonistic Responses of Herbicide Combinations”, Weeds 1967, 15, pg 20-22): E=X+Y−(XY/100).
# (§2) Using the method of Colby, the presence of asynergistic interaction between two active ingredients is established by first calculating the expected activity, ‘E’, of the mixture based on activities of the two components applied alone. If ‘E’ is lower than the observed activity, synergy is present. In the equation above, ‘X’ is the percentage control observed when bifenthrin applied alone at rate ‘x’. The ‘Y’ term is percentage control observed when fipronil applied alone at rate ‘y’. The equation calculates ‘E’, the expected activity of the mixture of ‘X’ at rate ‘x’ with ‘Y’ at rate ‘y’ if their effects are strictly additive and no interaction has occurred.
# The compositions of the present invention were tested for black house spider (Badumna insignis) activity in the following manner:
# Formulations of the test compounds were made as follows: • 1).
# The testing was conducted on pine plywood surfaces that had dimensions of 20 cm×20 cm. The above formulations were diluted in water to achieve the desired concentration rate in grams of active ingredient per liter prior to application to the pine plywood. Each treatment was applied using an airbrush sprayer and compressed air as the propellant. The equipment was calibrated prior to use and the treatments were applied to the pine plywood surfaces at a rate of 1 L/10 m^2 (4 mL of final test solution per 20 cm×20 cm pine plywood surface)'. For example, in order to obtain a application rate of […] of active ingredient per 10 m^2, 1.25 mL of the fipronil formulation 1) which contained 100 gram per liter suspension concentrate formulation of fipronil, was diluted in 1 liter of water to make a final test solution. Four mL of the final test solution was sprayed onto the pine plywood surface. The treated pine plywood was allowed to air dry at ambient temperature by storing horizontally away from direct sunlight. Three black house spiders, medium to large in size collected from the field 1 to 2 days prior to testing, were placed separately under untreated portion cups (7 cm diameter by 7 cm deep) on the treated pine plywood surfaces. The untreated portion cups provided an opportunity for the spiders to seek an untreated area. The spiders were assessed after 24 hours exposure by counting the number of alive and the number of knocked down/dead spiders. There were three replications of each treatment.
# [2] = tested on: American cockroach (Periplaneta americana); experiment: American cockroach mortality on treated filter paper; assay type: in vivo; conditions: 24 h
# From the text: as §1, §2
# The compositions of the present invention were tested for American cockroach (Periplaneta americana) activity in the following manner:
# Test solutions were made by dissolving technical grade bifenthrin and fipronil in acetone to provide appropriate rates of application of bifenthrin and fipronil alone, as well as combinations of bifenthrin and fipronil. The active ingredient concentrations tested were from 10 part per million (0.01 mg of active ingredient/mL or 0.01 g/L) to 1000 parts per million (1.0 mg of active ingredient/mL or 1.0 g/L), four replicates per rate. In a fume cabinet, one milliliter of a test solution was applied to a 9 cm Whatman® 2 qualitative filter paper using a calibrated pipette. The application started at the center of the filter paper with individual drops being applied in an outward circular motion so that the entire filter paper was uniformly treated. Acetone only (one mL) was applied in the same manner to provide an untreated control (UTC). The treated filter papers were allowed to dry for two hours. The dried, treated or untreated filter paper was placed into a plastic cup having a base diameter of 90 mm, in which the upper portion of the walls of the plastic cup were coated with a fluoropolymer resin (PFTE-30) insect barrier (Fluoron® available from BioQuip Products Inc.) to prevent the insects from climbing out of the container. Ten late instar, healthy and active American cockroaches (Periplaneta americana) were momentarily immobilized using carbon dioxide and then placed onto the filter paper. The top of the plastic containers were covered with gauze to contain the cockroaches. The plastic containers were maintained at a temperature of 25° C. to 30° C. at ambient relative humidity out of direct sunlight. American cockroach mortality was assessed after 24 hours by counting the number of alive and the number of knocked down/dead cockroaches.
# (§3) In order to compare the pesticidal effectiveness of the individual and combination treatments the LC 50 and LC 90 values (lethal concentration in ppm that would effectively knock down/kill 50% or 90% of the test pests) were calculated. In calculating the LC values for the various mixtures of bifenthrin and fipronil, probit analysis was conducted on the bifenthrin in concentration of the mixture. […] The values calculated from the data of Table 2 are in Table 2A below.
# [3] = tested on: German cockroach (Blatella germanica); experiment: German cockroach mortality on treated filter paper; assay type: in vivo, Blattella germanica; conditions: 24 h
# From the text: as §1, §2
# The compositions of the present invention were tested for German cockroach (Blatella germanica) activity in the following manner.
# Test solutions were made by dissolving technical grade bifenthrin and fipronil in acetone to provide appropriate rates of application of bifenthrin and fipronil alone, as well as combinations of bifenthrin and fipronil. The active ingredient concentrations tested were from 50 parts per million (0.05 mg of active ingredient/mL or 0.05 g/L) to 500 parts per million (0.5 mg of active ingredient/mL or 0.5 g/L), four replicates per rate. In a fume cabinet, one milliliter of a test solution was applied to a 9 cm Whatman® 2 qualitative filter paper using a calibrated pipette. The application started at the center of the filter paper with individual drops being applied in an outward circular motion so that the entire filter paper was uniformly treated. Acetone only (one mL) was applied in the same manner to provide an untreated control (UTC). The treated filter papers were allowed to dry for two hours. The dried, treated or untreated filter paper was placed into a plastic Petri dish and ten late instar, healthy and active German cockroaches (Blattella germanica) were momentarily immobilized using carbon dioxide and then placed onto the filter paper. The lid of each Petri dish was put on to contain the cockroaches. The Petri dishes were maintained at a temperature of 25° C. to 30° C. at ambient relative humidity out of direct sunlight. German cockroach mortality was assessed after 24 hours by counting the number of alive and the number of knocked down/dead cockroaches.
# as §3, with “fipronil” for “bifenthrin in”, “1” for “2”, “1A” for “2A”
# [4] = probit analysis of Table 2 data, mixtures as bifenthrin:fipronil
# [5] = probit analysis of Table 1 data, mixtures as bifenthrin:fipronil
structure (smiles),measurement,setting,value
"Cc1c(COC(=O)[C@@H]2[C@H](/C=C(\Cl)C(F)(F)F)C2(C)C)cccc1-c1ccccc1 (racemic) [Bifenthrin, 2-methylbiphenyl-3-ylmethyl (Z)-(1RS)-cis-3-(2-chloro-3,3,3-trifluoroprop-1-enyl)-2,2-dimethylcyclopropanecarboxylate]",Observed % Control,[1]; 0.25 g ai/L at 1 L/10 m^2,88.9%
same,Observed % Control,[1]; 0.5 g ai/L at 1 L/10 m^2,88.9%
same,% Observed Control,[2]; 100 ppm (0.1 mg/mL),2.5%
same,Mortality Rep 1 dead/alive,[2]; 100 ppm (0.1 mg/mL),1/9
same,Mortality Rep 2 dead/alive,[2]; 100 ppm (0.1 mg/mL),0/10
same,Mortality Rep 3 dead/alive,[2]; 100 ppm (0.1 mg/mL),0/10
same,Mortality Rep 4 dead/alive,[2]; 100 ppm (0.1 mg/mL),0/10
same,% Observed Control,[2]; 125 ppm (0.125 mg/mL),45%
same,Mortality Rep 1 dead/alive,[2]; 125 ppm (0.125 mg/mL),1/9
same,Mortality Rep 2 dead/alive,[2]; 125 ppm (0.125 mg/mL),10/0
same,Mortality Rep 3 dead/alive,[2]; 125 ppm (0.125 mg/mL),7/3
same,Mortality Rep 4 dead/alive,[2]; 125 ppm (0.125 mg/mL),0/10
same,% Observed Control,[2]; 200 ppm (0.2 mg/mL),10%
same,Mortality Rep 1 dead/alive,[2]; 200 ppm (0.2 mg/mL),0/10
same,Mortality Rep 2 dead/alive,[2]; 200 ppm (0.2 mg/mL),0/10
same,Mortality Rep 3 dead/alive,[2]; 200 ppm (0.2 mg/mL),0/10
same,Mortality Rep 4 dead/alive,[2]; 200 ppm (0.2 mg/mL),4/6
same,% Observed Control,[2]; 250 ppm (0.25 mg/mL),12.5%
same,Mortality Rep 1 dead/alive,[2]; 250 ppm (0.25 mg/mL),1/9
same,Mortality Rep 2 dead/alive,[2]; 250 ppm (0.25 mg/mL),1/9
same,Mortality Rep 3 dead/alive,[2]; 250 ppm (0.25 mg/mL),2/8
same,Mortality Rep 4 dead/alive,[2]; 250 ppm (0.25 mg/mL),1/9
same,% Observed Control,[2]; 400 ppm (0.4 mg/mL),22.5%
same,Mortality Rep 1 dead/alive,[2]; 400 ppm (0.4 mg/mL),1/9
same,Mortality Rep 2 dead/alive,[2]; 400 ppm (0.4 mg/mL),2/8
same,Mortality Rep 3 dead/alive,[2]; 400 ppm (0.4 mg/mL),4/6
same,Mortality Rep 4 dead/alive,[2]; 400 ppm (0.4 mg/mL),2/8
same,% Observed Control,[2]; 500 ppm (0.5 mg/mL),25%
same,Mortality Rep 1 dead/alive,[2]; 500 ppm (0.5 mg/mL),0/10
same,Mortality Rep 2 dead/alive,[2]; 500 ppm (0.5 mg/mL),5/5
same,Mortality Rep 3 dead/alive,[2]; 500 ppm (0.5 mg/mL),2/8
same,Mortality Rep 4 dead/alive,[2]; 500 ppm (0.5 mg/mL),3/7
same,% Observed Control,[2]; 1000 ppm (1.0 mg/mL),97.5%
same,Mortality Rep 1 dead/alive,[2]; 1000 ppm (1.0 mg/mL),10/0
same,Mortality Rep 2 dead/alive,[2]; 1000 ppm (1.0 mg/mL),10/0
same,Mortality Rep 3 dead/alive,[2]; 1000 ppm (1.0 mg/mL),10/0
same,Mortality Rep 4 dead/alive,[2]; 1000 ppm (1.0 mg/mL),9/1
same,LC 50,[2]; [4],906 ppm
same,LC 90,[2]; [4],1618 ppm
same,% Observed Control,[3]; 100 ppm (0.1 mg/mL),2.5%
same,Mortality Rep 1 dead/alive,[3]; 100 ppm (0.1 mg/mL),0/10
same,Mortality Rep 2 dead/alive,[3]; 100 ppm (0.1 mg/mL),0/10
same,Mortality Rep 3 dead/alive,[3]; 100 ppm (0.1 mg/mL),0/10
same,Mortality Rep 4 dead/alive,[3]; 100 ppm (0.1 mg/mL),1/9
same,% Observed Control,[3]; 250 ppm (0.25 mg/mL),90%
same,Mortality Rep 1 dead/alive,[3]; 250 ppm (0.25 mg/mL),9/1
same,Mortality Rep 2 dead/alive,[3]; 250 ppm (0.25 mg/mL),9/1
same,Mortality Rep 3 dead/alive,[3]; 250 ppm (0.25 mg/mL),9/1
same,Mortality Rep 4 dead/alive,[3]; 250 ppm (0.25 mg/mL),9/1
same,% Observed Control,[3]; 500 ppm (0.5 mg/mL),97.5%
same,Mortality Rep 1 dead/alive,[3]; 500 ppm (0.5 mg/mL),10/0
same,Mortality Rep 2 dead/alive,[3]; 500 ppm (0.5 mg/mL),10/0
same,Mortality Rep 3 dead/alive,[3]; 500 ppm (0.5 mg/mL),10/0
same,Mortality Rep 4 dead/alive,[3]; 500 ppm (0.5 mg/mL),9/1
same,LC 50,[3]; [5],193 ppm
same,LC 90,[3]; [5],301 ppm
